The results in this text go back to publication PMC5063381, “Characterization of the Neisseria meningitidis Helicase RecG” (PLoS ONE, 2016).

Broadly, the Kd is the concentration at which binding is half-saturated.

In one test the target is T1, RecGNm (Neisseria meningitidis, UniProt Q9JY17).
T1 construct: gene recG; ORF in pET28b(+) (pGTB1, NdeI/XhoI), N-terminal 6xHis-tag, expressed in E. coli ER2566; Ni-NTA and Superdex 75
T1 sequence (Q9JY17 1-680): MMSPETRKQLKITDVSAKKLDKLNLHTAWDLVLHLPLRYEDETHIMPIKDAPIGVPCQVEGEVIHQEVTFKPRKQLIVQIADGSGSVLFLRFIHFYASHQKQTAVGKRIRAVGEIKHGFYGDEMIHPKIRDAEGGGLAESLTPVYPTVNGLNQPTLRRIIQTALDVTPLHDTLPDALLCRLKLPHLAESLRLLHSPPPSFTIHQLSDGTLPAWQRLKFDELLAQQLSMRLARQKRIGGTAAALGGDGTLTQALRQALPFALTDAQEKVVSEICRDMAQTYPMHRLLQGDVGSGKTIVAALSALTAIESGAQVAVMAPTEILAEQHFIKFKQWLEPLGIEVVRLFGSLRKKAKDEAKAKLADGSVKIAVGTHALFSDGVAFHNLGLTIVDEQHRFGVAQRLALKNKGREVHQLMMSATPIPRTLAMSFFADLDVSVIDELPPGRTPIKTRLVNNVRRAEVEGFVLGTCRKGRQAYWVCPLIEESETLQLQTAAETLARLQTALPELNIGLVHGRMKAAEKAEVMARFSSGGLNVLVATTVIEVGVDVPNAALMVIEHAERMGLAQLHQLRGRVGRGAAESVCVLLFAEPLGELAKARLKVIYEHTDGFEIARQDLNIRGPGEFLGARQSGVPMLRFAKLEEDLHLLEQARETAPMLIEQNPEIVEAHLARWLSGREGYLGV
Put plainly: TLC ATPase assay with [gamma-32P]ATP. It counts as biochemical. The following applies: 100 nM DNA cofactor (branched DNA), 2 mM MgCl2, pH 7.5, 37 °C; labelled compound as tracer.

Test [1] concerns the target T2, Neisseria meningitidis DNA repair/recombination helicase RecG (Neisseria meningitidis strain MC58, UniProt Q9JY17 1-680).
T2 construct: RecG helicase of Neisseria meningitidis strain MC58; the ORF was amplified from genomic DNA and cloned into pET28b(+) between XhoI and NdeI (plasmid pGTB1); also called RecGNm; Nm RecG; source: E. coli ER2566, purified (Ni-NTA, gel filtration on Superdex 75)
T2 sequence (looked up): T1 sequence (Q9JY17 1-680)
Briefly: MST; 21 nM RED-NHS labelled SSBNm, RecGNm titrated; 20 mM HEPES pH 7.5, 300 mM NaCl, 0.05% Tween 20, 0.1% Pluronic F-127, 0.1% PEG 8000, 2 mM DTT; 22°C, 40% MST power. The following applies: both partners purified.

With `Nc1ncnc2c1ncn2[C@@H]1O[C@H](COP(=O)(O)OP(=O)(O)OP(=O)(O)O)[C@@H](O)[C@H]1O` [ATP], at RecGNm, the “% ATP hydrolysis” value is on record as “RecGNm displayed comparable capacity of ATP hydrolysis in the presence of different types of branched”.

B1: Neisseria meningitidis single-stranded DNA-binding protein SSB (natural protein, Neisseria meningitidis strain MC58, UniProt P66848 1-174, looked up)
chain: MSLNKVILIGRLGRDPEVRYMPNGEAVCNFSVATSETWNDRNGQRVERTEWHNITMYRKLAEIAGQYLKKGGLVYLEGRIQSRKYQGKDGIERTAYDIVANEMKMLGGRNENSGGAPYEEGYGQSQEAYQRPAQQSRQPASDAPSHPQEAPAAPRRQPVPAAAPVEDIDDDIPF
modifications: Monolith NT Protein Labeling Kit RED-NHS dye, degree of labelling 0.65 (in the MST only)
notes: It was unlabelled in the gel filtration and RED-NHS labelled in the MST; also called SSBNm; source: plasmid pEH1 (pQE-30 harboring ssb from Nm MC58)
For the molecule B1, the Kd in test [1] is 558 ± 139 nM.
